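Tested at 5 concentrations; 48 h exposure; 96-well plates; endpoints linearly interpolated, else capped at highest concentration. Here, GI50 denotes the concentration required for 50% inhibition of growth. TGI: total growth inhibition.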
Legend:
Experiment in all cases: inhibition of tumour cell growth, NCI panel, 48 h
UACC-257 melanoma = tested on: UACC-257 melanoma
SK-MEL-2 melanoma = tested on: SK-MEL-2 melanoma
HCT-116 colon = tested on: HCT-116 colon
U251 CNS = tested on: U251 CNS
RXF 393 renal = tested on: RXF 393 renal
SF-539 CNS = tested on: SF-539 CNS
DMS 114 small cell lung = tested on: DMS 114 small cell lung
MOLT-4 leukemia = tested on: MOLT-4 leukemia
SF-295 CNS = tested on: SF-295 CNS
NCI-H226 lung = tested on: NCI-H226 lung

Structure (SMILES) | TGI (UACC-257 melanoma) [µM] | TGI (SK-MEL-2 melanoma) [µM] | TGI (HCT-116 colon) [µM] | TGI (U251 CNS) [µM] | TGI (RXF 393 renal) [µM] | TGI (SF-539 CNS) [µM] | TGI (DMS 114 small cell lung) [µM] | TGI (MOLT-4 leukemia) [µM] | TGI (SF-295 CNS) [µM] | TGI (NCI-H226 lung) [µM] | GI50 (NCI-H226 lung) [µM] | GI50 (UACC-257 melanoma) [µM] | GI50 (SK-MEL-2 melanoma) [µM] | GI50 (HCT-116 colon) [µM] | GI50 (U251 CNS) [µM] | GI50 (RXF 393 renal) [µM] | GI50 (SF-539 CNS) [µM] | GI50 (MOLT-4 leukemia) [µM] | GI50 (SF-295 CNS) [µM]
Cn1c(=O)c2nc(NCCO)cnc2n(C)c1=O | > 100 | > 100 | > 100 | > 100 | 81.5 | 88.7 | > 100 | > 100 | > 100 | – | – | – | – | – | – | – | – | – | –
Cc1c(N=NN(C)C)cc[n+]([O-])c1C | > 100 | > 100 | > 100 | > 100 | > 100 | > 100 | > 100 | > 100 | > 100 | > 100 | – | – | – | – | – | – | – | – | –
CCCCS(=O)CC(CO)NC(=O)/C=C/c1c(C)[nH]c(=O)[nH]c1=O (configuration not stated) | 55 | 23.4 | 88.2 | 26.7 | 51.3 | 35.4 | 25.1 | 50 | 38.8 | 34 | – | – | – | – | – | – | – | – | –
CC(C)[C@](O)(C(=O)OCC1=CCN2CC[C@@H](O)[C@@H]12)[C@H](C)O | > 375 | > 375 | > 375 | > 375 | > 375 | > 375 | > 375 | > 375 | > 375 | > 375 | – | – | – | – | – | – | – | – | –
O=C(c1ccccc1)c1nn(-c2ccccc2)c2nc3nc(-c4ccccc4)cc(=O)n3nc12 | 61.4 | 65.6 | 28 | > 100 | > 100 | 38.6 | – | 49.3 | 53 | > 100 | 47.4 | 30.7 | 23.8 | 14.6 | 32.6 | 26 | 19.2 | 21.8 | 19.9
COC(=O)C1C(O)C(C)C(O)OC1C(C)C(O)C(C)/C=C\C=C(/C)C(=O)Nc1c(C)c(OC(C)=O)c2c(c1O)C(=O)C(C)=C1OCOC(/C(C)=C/C(C)=O)=C12 (configuration not stated) | 23.7 | 20.9 | 19.9 | 27.7 | 24.8 | 23.7 | 27.5 | 33.3 | 26 | 23.4 | – | – | – | – | – | – | – | – | –
O=C1CSC(C(N=Nc2ccc(Cl)cc2)c2nc3ccccc3[nH]2)=N1 (configuration not stated) | > 100 | 41.8 | > 100 | > 100 | – | 52.9 | 58.5 | 39.8 | > 100 | 52 | – | – | – | – | – | – | – | – | –
C[C@]12CCc3sc(-c4cccc(F)c4)nc3C1=CC[C@@H]1[C@@H]2CC[C@]2(C)C(=O)CC[C@@H]12 | > 100 | 10.7 | 3.56 | 13.6 | 2.94 | 2.48 | – | 7.89 | 4.91 | – | – | 6.12 | 2.74 | 1.73 | 2 | 1.41 | 1.04 | 1.69 | 1.59

Source: PubChem BioAssay (NCI)
